Source: US10208019B2, “GLP-1 receptor agonists and uses thereof” (Pfizer Inc., priority 2016, dated 2019)
pEC50: −log10 of the molar value.

Columns and labels:
human GLP-1R [1] = molecular target: human GLP-1R (Homo sapiens (Human), UniProt P43220, L260F); assay: CHO GLP-1R Clone C6—Assay 2: HTRF cAMP cell-based functional agonist assay (low GLP-1R density); conditions: for pEC50: CHO GLP-1R Clone C6, cAMP HTRF, geometric mean; for Emax: read-out: Assay 2 Emax (%)
Experimental: GLP-1R-mediated agonist activity was determined with a cell-based functional assay utilizing an HTRF (Homogeneous Time-Resolved Fluorescence) cAMP detection kit (cAMP HI Range Assay Kit; Cis Bio cat #62AM6PEJ) that measures cAMP levels in the cell. The method is a competitive immunoassay between native cAMP produced by the cells and exogenous cAMP labeled with the dye d2. The tracer binding is visualized by a mAb anti-cAMP labeled with Cryptate. The specific signal (i.e. energy transfer) is inversely proportional to the concentration of cAMP in either a standard or an experimental sample.
The human GLP-1R coding sequence (NCBI Reference Sequence NP_002053.3, including naturally-occurring variant Leu260Phe) was subcloned into pcDNA5-FRT-TO and a clonal CHO cell line stably expressing a low receptor density was isolated using the Flp-In™ T-Rex™ System, as described by the manufacturer (ThermoFisher).
Cells were removed from cryopreservation, re-suspended in 40 mL of Dulbecco's Phosphate Buffered Saline (DPBS-Lonza Cat #17-512Q) and centrifuged at 800×g for 5 min at 22° C. The DPBS was aspirated, and the cell pellet was re-suspended in 10 mL of complete growth medium (DMEM:F12 1:1 Mixture with HEPES, L-Gln, 500 mL (DMEM/F12 Lonza Cat #12-719F), 10% heat inactivated fetal bovine serum (Gibco Cat #16140-071), 5 mL of 100× Pen-Strep (Gibco Cat #15140-122), 5 mL of 100× L-Glutamine (Gibco Cat #25030-081), 700 μg/mL Hygromycin (Invitrogen Cat #10687010) and 15 μg/mL Blasticidin (Gibco Cat #R21001). A 1 mL sample of the cell suspension in growth media was counted on a Becton Dickinson ViCell to determine cell viability and cell count per mL. The remaining cell suspension was then adjusted with growth media to deliver 1600 viable cells per well using a Matrix Combi Multidrop reagent dispenser, and the cells were dispensed into a white 384 well tissue culture treated assay plate (Corning 3570). The assay plate was then incubated for 48 h at 37° C. in a humidified environment (95% O2, 5% CO2)
Varying concentrations of each compound to be tested (in DMSO) were diluted in assay buffer [HBSS with Calcium/Magnesium (Lonza/BioWhittaker cat #10-527F)/0.1% BSA (Sigma Aldrich cat #A7409-1L)/20 mM HEPES (Lonza/BioWhittaker cat #17-737E)] containing 100 μM 3-isobutyl-1-methylxanthin (IBMX; Sigma cat #15879). The final DMSO concentration in the compound/assay buffer mixture is 1%.
After 48 h, the growth media was removed from the assay plate wells, and the cells were treated with 20 μL of the serially diluted compound in assay buffer for 30 min at 37° C. in a humidified environment (95% O2, 5% CO2). Following the 30 min incubation, 10 μL of labeled d2 cAMP and 10 μL of anti-cAMP antibody (both diluted 1:20 in cell lysis buffer; as described in the manufacturer's assay protocol) were added to each well of the assay plate. The plates were then incubated at room temperature and after 60 minutes, changes in the HTRF signal were read with an Envision 2104 multi-label plate reader using excitation of 330 nm and emissions of 615 and 665 nm. Raw data were converted to nM cAMP by interpolation from a cAMP standard curve (as described in the manufacturer's assay protocol) and the percent effect was determined relative to a saturating concentration of the full agonist GLP-1 (1 μM) included on each plate. EC50 determinations were made from agonist dose response curves analyzed with a curve fitting program using a 4-parameter logistic dose response equation.

human GLP-1R [2] = molecular target: human GLP-1R (Homo sapiens, UniProt P43220, G168S); assay: CHO GLP-1R Clone H6—Assay 1: HTRF cAMP cell-based functional agonist assay (high GLP-1R density); conditions: for pEC50: read-out: Assay 1 EC50, CHO GLP-1R Clone H6, cAMP HTRF, geometric mean; for Emax: read-out: Assay 1 Emax (%), CHO GLP-1R Clone H6
[3] = CHO GLP-1R Clone C6, relative to saturating concentration of full agonist GLP-1 (1 μM), arithmetic mean
[4] = relative to saturating concentration of full agonist GLP-1 (1 μM), arithmetic mean

human GLP-1R (Homo sapiens, UniProt P43220, G168S), sequence (P43220 24-463 G168S limits assumed): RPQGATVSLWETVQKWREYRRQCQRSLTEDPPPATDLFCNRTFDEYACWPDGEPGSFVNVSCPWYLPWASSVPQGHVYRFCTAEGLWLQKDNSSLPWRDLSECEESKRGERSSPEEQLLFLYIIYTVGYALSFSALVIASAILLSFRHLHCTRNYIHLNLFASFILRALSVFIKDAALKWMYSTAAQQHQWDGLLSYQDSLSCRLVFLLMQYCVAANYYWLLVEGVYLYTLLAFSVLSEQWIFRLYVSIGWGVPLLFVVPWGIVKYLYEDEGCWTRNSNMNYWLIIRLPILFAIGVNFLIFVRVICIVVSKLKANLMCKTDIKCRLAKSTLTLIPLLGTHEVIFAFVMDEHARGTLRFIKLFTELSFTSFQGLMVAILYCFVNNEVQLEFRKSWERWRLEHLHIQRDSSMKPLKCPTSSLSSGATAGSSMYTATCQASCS
human GLP-1R (Homo sapiens (Human), UniProt P43220, L260F), sequence (P43220 24-463 L260F): as the sequence (P43220 24-463 G168S limits assumed) above, with S145G, L237F counted along it

COC(C)(C)Cn1c(CN2CCC(c3cccc(OCc4ccc(Cl)cc4F)n3)CC2)nc2ccc(C(=O)O)cc21 [Example 11A-22, 2-[(4-{6-[(4-chloro-2-fluorobenzyl)oxy]pyridin-2-yl}piperidin-1-yl)methyl]-1-(2-methoxy-2-methylpropyl)-1H-benzimidazole-6-carboxylic acid]
pEC50 (human GLP-1R [1]): 6.70 | Emax (human GLP-1R [1]; [3]): 81% | pEC50 (human GLP-1R [2]): 7.68 | Emax (human GLP-1R [2]; [4]): 82%

O=C(O)c1ccc2nc(CN3CCC(c4cccc(OCc5ccc(Cl)cc5F)n4)CC3)n(Cc3c[nH]nn3)c2c1 [Example 11A-23, 2-[(4-{6-[(4-chloro-2-fluorobenzyl)oxy]pyridin-2-yl}piperidin-1-yl)methyl]-1-(1H-1,2,3-triazol-4-ylmethyl)-1H-benzimidazole-6-carboxylic acid]
pEC50 (human GLP-1R [1]): 6.48 | Emax (human GLP-1R [1]; [3]): 96% | pEC50 (human GLP-1R [2]): 7.60 | Emax (human GLP-1R [2]; [4]): 78%

O=C(O)c1ccc2nc(CN3CCC(c4cccc(OCc5ccc(Cl)cc5F)n4)CC3)n(Cc3cc[nH]n3)c2c1 [Example 11A-24, 2-[(4-{6-[(4-chloro-2-fluorobenzyl)oxy]pyridin-2-yl}piperidin-1-yl)methyl]-1-(1H-pyrazol-3-ylmethyl)-1H-benzimidazole-6-carboxylic acid]
pEC50 (human GLP-1R [1]): 6.35 | Emax (human GLP-1R [1]; [3]): 89% | pEC50 (human GLP-1R [2]): 7.55 | Emax (human GLP-1R [2]; [4]): 80%

O=C(O)c1ccc2nc(CN3CCC(c4cccc(OCc5ccc(Cl)cc5F)n4)CC3)n(Cc3nnc[nH]3)c2c1 [Example 11A-25, 2-[(4-{6-[(4-chloro-2-fluorobenzyl)oxy]pyridin-2-yl}piperidin-1-yl)methyl]-1-(4H-1,2,4-triazol-3-ylmethyl)-1H-benzimidazole-6-carboxylic acid]
pEC50 (human GLP-1R [1]): 6.44 | Emax (human GLP-1R [1]; [3]): 89% | pEC50 (human GLP-1R [2]): 7.52 | Emax (human GLP-1R [2]; [4]): 77%

O=C(O)c1ccc2nc(CN3CCC(c4cccc(OCc5ccc(Cl)cc5F)n4)CC3)n(C3CCOC3)c2c1 (stereo not drawn) [Example 11A-26, 2-[(4-{6-[(4-chloro-2-fluorobenzyl)oxy]pyridin-2-yl}piperidin-1-yl)methyl]-1-(tetrahydrofuran-3-yl)-1H-benzimidazole-6-carboxylic acid]
pEC50 (human GLP-1R [1]): 5.96 | Emax (human GLP-1R [1]; [3]): 79% | pEC50 (human GLP-1R [2]): 7.44 | Emax (human GLP-1R [2]; [4]): 73%

CC(F)(F)Cn1c(CN2CCC(c3cccc(OCc4ccc(Cl)cc4F)n3)CC2)nc2ccc(C(=O)O)cc21 [Example 11A-27, 2-[(4-{6-[(4-chloro-2-fluorobenzyl)oxy]pyridin-2-yl}piperidin-1-yl)methyl]-1-(2,2-difluoropropyl)-1H-benzimidazole-6-carboxylic acid]
pEC50 (human GLP-1R [1]): 6.31 | Emax (human GLP-1R [1]; [3]): 98% | pEC50 (human GLP-1R [2]): 7.36 | Emax (human GLP-1R [2]; [4]): 72%

O=C(O)c1ccc2nc(CN3CCC(c4cccc(OCc5ccc(Cl)cc5F)n4)CC3)n(CCn3cccn3)c2c1 [Example 11A-28, 2-[(4-{6-[(4-chloro-2-fluorobenzyl)oxy]pyridin-2-yl}piperidin-1-yl)methyl]-1-[2-(1H-pyrazol-1-yl)ethyl]-1H-benzimidazole-6-carboxylic acid]
pEC50 (human GLP-1R [1]): 5.92 | Emax (human GLP-1R [1]; [3]): 82% | pEC50 (human GLP-1R [2]): 7.27 | Emax (human GLP-1R [2]; [4]): 77%

Cc1noc(CCn2c(CN3CCC(c4cccc(OCc5ccc(Cl)cc5F)n4)CC3)nc3ccc(C(=O)O)cc32)n1 [Example 11A-29, 2-[(4-{6-[(4-chloro-2-fluorobenzyl)oxy]pyridin-2-yl}piperidin-1-yl)methyl]-1-[2-(3-methyl-1,2,4-oxadiazol-5-yl)ethyl]-1H-benzim idazole-6-carboxylic acid]
pEC50 (human GLP-1R [1]): 5.77 | Emax (human GLP-1R [1]; [3]): 99% | pEC50 (human GLP-1R [2]): 7.26 | Emax (human GLP-1R [2]; [4]): 71%

Cc1ccn(CCn2c(CN3CCC(c4cccc(OCc5ccc(Cl)cc5F)n4)CC3)nc3ccc(C(=O)O)cc32)n1 [Example 11A-31, 2-[(4-{6-[(4-chloro-2-fluorobenzyl)oxy]pyridin-2-yl}piperidin-1-yl)methyl]-1-[2-(3-methyl-1H-pyrazol-1-yl)ethyl]-1H-benzimidazole-6-carboxylic acid]
pEC50 (human GLP-1R [1]): 5.82 | Emax (human GLP-1R [1]; [3]): 81% | pEC50 (human GLP-1R [2]): 7.14 | Emax (human GLP-1R [2]; [4]): 76%

Cn1ncnc1Cn1c(CN2CCC(c3cccc(OCc4ccc(Cl)cc4F)n3)CC2)nc2ccc(C(=O)O)cc21 [Example 11A-33, 2-[(4-{6-[(4-chloro-2-fluorobenzyl)oxy]pyridin-2-yl}piperidin-1-yl)methyl]-1-[(1-methyl-1H-1,2,4-triazol-5yl)methyl]-1H-benzimidazole-6-carboxylic acid]
pEC50 (human GLP-1R [1]): 5.85 | Emax (human GLP-1R [1]; [3]): 94% | pEC50 (human GLP-1R [2]): 7.02 | Emax (human GLP-1R [2]; [4]): 86%

CN1CCC[C@@H]1Cn1c(CN2CCC(c3cccc(OCc4ccc(Cl)cc4F)n3)CC2)nc2ccc(C(=O)O)cc21 [Example 11A-34, 2-[(4-{6-[(4-chloro-2-fluorobenzyl)oxy]pyridin-2-yl}piperidin-1-yl)methyl]-1-{[(2R)-1-methylpyrrolidin-2-yl]methyl}-1H-benzimidazole-6-carboxylic acid]
pEC50 (human GLP-1R [1]): 5.46 | Emax (human GLP-1R [1]; [3]): 95% | pEC50 (human GLP-1R [2]): 6.96 | Emax (human GLP-1R [2]; [4]): 70%

O=C(O)c1ccc2nc(CN3CCC(c4cccc(OCc5ccc(Cl)cc5F)n4)CC3)n(C[C@H]3CCCO3)c2c1 [Example 11A-68, 2-[(4-{6-[(4-chloro-2-fluorobenzyl)oxy]pyridin-2-yl}piperidin-1-yl)methyl]-1-[(2R)-tetrahydrofuran-2-ylmethyl]-1H-benzimidazole-6-carboxylic acid]
pEC50 (human GLP-1R [1]): 5.70 | Emax (human GLP-1R [1]; [3]): 82% | pEC50 (human GLP-1R [2]): 7.20 | Emax (human GLP-1R [2]; [4]): 78%

O=C(O)c1ccc2nc(CN3CCC(c4cccc(OCc5ccc(Cl)cc5F)n4)CC3)n(Cc3ccon3)c2c1 [Example 11A-69, 2-[(4-{6-[(4-chloro-2-fluorobenzyl)oxy]pyridin-2-yl}piperidin-1-yl)methyl]-1-(1,2-oxazol-3-ylmethyl)-1H-benzimidazole-6-carboxylic acid]
pEC50 (human GLP-1R [1]): 7.68 | Emax (human GLP-1R [1]; [3]): 84% | pEC50 (human GLP-1R [2]): 8.28 | Emax (human GLP-1R [2]; [4]): 76%

Cn1cncc1Cn1c(CN2CCC(c3cccc(OCc4ccc(Cl)cc4F)n3)CC2)nc2ccc(C(=O)O)cc21 [Example 11A-70, 2-[(4-{6-[(4-chloro-2-fluorobenzyl)oxy]pyridin-2-yl}piperidin-1-yl)methyl]-1-[(1-methyl-1H-imidazol-5-yl)methyl]-1H-benzimidazole-6-carboxylic acid]
pEC50 (human GLP-1R [1]): 8.00 | Emax (human GLP-1R [1]; [3]): 89% | pEC50 (human GLP-1R [2]): 9.15 | Emax (human GLP-1R [2]; [4]): 86%

Cn1cnnc1Cn1c(CN2CCC(c3cccc(OCc4ccc(Cl)cc4F)n3)CC2)nc2ccc(C(=O)O)cc21 [Example 11A-71, 2-[(4-{6-[(4-chloro-2-fluorobenzyl)oxy]pyridin-2-yl}piperidin-1-yl)methyl]-1-[(4-methyl-4H-1,2,4-triazol-3-yl)methyl]-1H-benzimidazole-6-carboxylic acid]
pEC50 (human GLP-1R [1]): 6.24 | Emax (human GLP-1R [1]; [3]): 93% | pEC50 (human GLP-1R [2]): 7.52 | Emax (human GLP-1R [2]; [4]): 73%

Cn1nncc1Cn1c(CN2CCC(c3cccc(OCc4ccc(Cl)cc4F)n3)CC2)nc2ccc(C(=O)O)cc21 [Example 11A-72, 2-[(4-{6-[(4-chloro-2-fluorobenzyl)oxy]pyridin-2-yl}piperidin-1-yl)methyl]-1-[(1-methyl-1H-1,2,3-triazol-5-yl]methyl]-1H-benzimidazole-6-carboxylic acid]
pEC50 (human GLP-1R [1]): 7.39 | Emax (human GLP-1R [1]; [3]): 77% | pEC50 (human GLP-1R [2]): 8.30 | Emax (human GLP-1R [2]; [4]): 82%

O=C(O)c1ccc2nc(CN3CCC(c4cccc(OCc5ccc(Cl)cc5F)n4)CC3)n(CCC(F)(F)F)c2c1 [Example 11A-73, 2-[(4-{6-[(4-chloro-2-fluorobenzyl)oxy]pyridin-2-yl}piperidin-1-yl)methyl]-1-(3,3,3-trifluoropropyl)-1H-benzimidazole-6-carboxylic acid]
pEC50 (human GLP-1R [1]): 5.28 | Emax (human GLP-1R [1]; [3]): 80% | pEC50 (human GLP-1R [2]): 6.82 | Emax (human GLP-1R [2]; [4]): 68%

CC[C@H]1CN(c2cccc(OCc3ccc(Cl)cc3F)n2)CCN1Cc1nc2ccc(C(=O)O)cc2n1CCOC [Example 12A-07, 2-{[(2S)-4-{6-[(4-chloro-2-fluorobenzyl)oxy]pyridin-2-yl}-2-ethylpiperazin-1-yl]methyl}-1-(2-methoxyethyl)-1H-benzimidazole-6-carboxylic acid]
pEC50 (human GLP-1R [1]): 5.92 | Emax (human GLP-1R [1]; [3]): 83% | pEC50 (human GLP-1R [2]): 7.43 | Emax (human GLP-1R [2]; [4]): 69%

COCCn1c(CN2CCN(c3cccc(OCc4ccc(C#N)cc4)n3)C[C@@H]2C)nc2ccc(C(=O)O)cc21 [Example 12A-08, 2-{[(2S)-4-{6-[(4-cyanobenzyl)oxy]pyridin-2-yl}-2-methylpiperazin-1-yl]methyl}-1-(2-methoxyethyl)-1H-benzimidazole-6-carboxylic acid]
pEC50 (human GLP-1R [1]): 6.82 | Emax (human GLP-1R [1]; [3]): 97% | pEC50 (human GLP-1R [2]): 8.21 | Emax (human GLP-1R [2]; [4]): 89%

COCCn1c(CN2CCN(c3cccc(OCc4ccc(Cl)cc4F)n3)C[C@@H]2CO)nc2ccc(C(=O)O)cc21 [Example 12A-09]
pEC50 (human GLP-1R [1]): 6.27 | Assay 2 Emax (%) (human GLP-1R [1]; [3]): 80% | Assay 1 Emax (%) (human GLP-1R [2]; CHO GLP-1R Clone H6, relative to saturating concentration of full agonist GLP-1 (1 μM), arithmetic mean): 79% | pEC50 (human GLP-1R [2]): 7.68

COCCn1c(CN2CCN(c3cccc(OCc4ccc(Cl)cc4F)n3)C[C@@H]2C)nc2ccc(C(=O)O)cc21 [Example 12A-10, 2-{[(2S)-4-{6-[(4-chloro-2-fluorobenzyl)oxy]pyridin-2-yl}-2-methylpiperazin-1-yl]methyl]-1-(2-methoxyethyl)-1H-benzimidazole-6-carboxylic acid]
pEC50 (human GLP-1R [1]): 6.77 | Emax (human GLP-1R [1]; [3]): 96% | pEC50 (human GLP-1R [2]): 8.16 | Emax (human GLP-1R [2]; [4]): 78%
